Source: patent US11647993B2, “Oral fluid collector” (Research Triangle Institute, priority 2017, dated 2023)
Like-named read-outs stand apart in the source and are kept apart here.

Experiments:
[1] = Stability of BZE in matrices over pH; type: physicochemical; conditions: most matrices, broad range of pH values
Excerpt: Based on the above discussion, the stabilization of parent cocaine in a matrix such as oral fluid, which contains esterases possibly derived from crevicular fluid, is challenging unless appropriate buffering at a pH where parent cocaine is stable is employed.

[2] = tetrahydrate soluble in hot water; cited from earlier work
[3] = Stability of parent THC spiked into neat human oral fluid, with or without the reagent component; type: physicochemical
[4] = oral fluid, over 14 days, cited from earlier work
[5] = pH of greatest stability; conditions: parent THC by itself
[6] = two collection devices, cited from earlier work
[7] = aqueous solution (cocaine); labile esters (heroin, 6-AM); cited from earlier work

CN1[C@H]2CC[C@@H]1[C@@H](C(=O)O)[C@@H](OC(=O)c1ccccc1)C2 [BZE, benzoylecgonine]
stability [1]: stable | water solubility [2]: considerable water solubility

CCCCCc1cc(O)c2c(c1)OC(C)(C)[C@@H]1CCC(C)=C[C@@H]21 [THC, Δ^9-tetrahydrocannabinol]
loss of THC [3]: substantial loss | losses of THC ([4]; in the dark at room temperature): 20% | losses of THC ([4]; under fluorescent lights): greater than 50% | pH at which most stable [5]: ~7.5

COC(=O)[C@H]1[C@@H](OC(=O)c2ccccc2)C[C@@H]2CC[C@H]1N2C [cocaine]
cocaine degraded to BZE ([6]; within 48 hours): 26% | cocaine degraded to BZE ([6]; within 72 hours): 41% | pH of greatest stability / stabilization [7]: ~5

CC(=O)Oc1ccc2c3c1O[C@H]1[C@@H](OC(C)=O)C=C[C@H]4[C@@H](C2)N(C)CC[C@@]341 [heroin, diacetylmorphine]
pH of greatest stability / stabilization [7]: ~5.0
